Results published in the supplement of paper PMC10307832.

Legend:
Assay in all cases: relative viability (nuclei count vs DMSO), 5 days (fraction); higher = more cells survive
Motesanib + Olaparib = compound: CC1(C)CNc2cc(NC(=O)c3cccnc3NCc3ccncc3)ccc21 [Motesanib] + O=C(c1cc(Cc2n[nH]c(=O)c3ccccc23)ccc1F)N1CCN(C(=O)C2CC2)CC1 [Olaparib] (partner 8 µM)
How it was run: (§1)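 Relative viability divides the nuclei count in treated wells by that in vehicle wells. Lung cancer cell lines were seeded in 1536-well plates, dosed by pin tool the next day, and fixed and stained after 5 days in one step with final 0.05% Triton X-100, 1% formaldehyde and 1 ug/ml Hoechst. Dosing was a single drug or a fixed anchor-drug dose plus five library-drug doses (not always all listed) in √10 steps, and values are medians of duplicate plates imaged at 4×.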

[1] = compound: C[C@@]1(C(=O)Nc2ccc(F)nc2)CCCN1c1nc(Nc2cc(C3CC3)n[nH]2)c2cccn2n1 + C[C@@H](Oc1cc(-c2cnn(C3CCNCC3)c2)cnc1N)c1c(Cl)ccc(F)c1Cl [Crizotinib] (partner 1 µM)
How it was run: as §1

[2] = compound: C[C@@]1(C(=O)Nc2ccc(F)nc2)CCCN1c1nc(Nc2cc(C3CC3)n[nH]2)c2cccn2n1 + COc1cc2c(Oc3ccc(NC(=O)C4(C(=O)Nc5ccc(F)cc5)CC4)cc3F)ccnc2cc1OCCCN1CCOCC1 [Foretinib] (partner 0.25 µM)
How it was run: as §1

Motesanib + AZD7762 = compound: CC1(C)CNc2cc(NC(=O)c3cccnc3NCc3ccncc3)ccc21 [Motesanib] + NC(=O)Nc1cc(-c2cccc(F)c2)sc1C(=O)N[C@H]1CCCNC1 [AZD7762] (partner 0.2 µM)
How it was run: as §1

Cell Line	relative viability (Motesanib + Olaparib; first compound 0.01 µM)	relative viability (Motesanib + Olaparib; first compound 0.03162 µM)	relative viability (Motesanib + Olaparib; first compound 0.1 µM)	relative viability (Motesanib + Olaparib; first compound 0.3162 µM)	relative viability (Motesanib + Olaparib; first compound 1 µM)	relative viability ([1]; first compound 0.04 µM)	relative viability ([1]; first compound 0.1265 µM)	relative viability ([1]; first compound 0.4 µM)	relative viability ([1]; first compound 1.265 µM)	relative viability ([2]; first compound 0.04 µM)	relative viability ([2]; first compound 0.1265 µM)	relative viability ([2]; first compound 0.4 µM)	relative viability ([2]; first compound 1.265 µM)	relative viability (Motesanib + AZD7762; first compound 0.01 µM)	relative viability (Motesanib + AZD7762; first compound 0.03162 µM)	relative viability (Motesanib + AZD7762; first compound 0.1 µM)	relative viability (Motesanib + AZD7762; first compound 0.3162 µM)	relative viability (Motesanib + AZD7762; first compound 1 µM)
201T	0.803	0.828	0.852	0.88	0.872	0.993	0.943	0.933	0.973	0.747	0.629	0.353	0.573	0.592	0.617	0.734	0.637	0.672
A549	0.333	0.402	0.407	0.438	0.402	0.52	0.402	0.248	0.089	0.891	0.659	0.582	0.272	–	–	–	–	–
A-427	0.78	0.7	0.672	0.732	0.777	0.853	0.848	0.674	0.882	1.19	0.988	0.785	1.15	0.709	0.733	0.821	0.775	0.668
ABC-1	0.895	0.66	0.58	1.15	0.869	1.01	0.695	0.7	0.272	0.773	0.782	0.744	0.38	0.811	1	0.762	0.904	0.846
BEN	1.02	1.04	0.938	1.18	1.43	0.773	1.19	0.59	0.999	0.918	0.649	0.678	0.536	0.617	0.877	0.645	0.576	0.799
CAL-12T	0.674	0.731	0.699	0.683	0.736	0.509	0.487	0.346	0.161	1.15	1.06	0.897	0.4	0.518	0.637	0.684	0.69	0.578
COR-L23	0.366	0.389	0.275	0.363	0.36	0.737	0.653	0.494	0.333	0.967	0.865	0.762	0.695	–	–	–	–	–
COR-L 105	0.767	0.761	0.745	0.725	0.804	0.805	0.454	0.5	0.456	0.887	0.993	0.828	1.01	–	–	–	–	–
Calu-6	0.56	0.603	0.456	0.546	0.536	0.881	0.743	0.597	0.491	0.959	0.871	0.758	0.414	–	–	–	–	–
ChaGo-K-1	0.434	0.437	0.425	0.484	0.411	0.989	0.644	1.01	0.791	0.831	0.829	0.828	0.888	0.89	0.812	0.804	0.836	0.795
EBC-1	0.732	0.674	0.694	0.729	0.783	0.195	0.168	0.211	0.2	0.114	0.0828	0.0953	0.11	–	–	–	–	–
EKVX	0.74	0.809	0.776	0.904	0.944	0.929	0.862	0.612	0.679	0.684	0.751	0.602	0.253	0.716	0.653	0.684	0.68	0.665
EMC-BAC-2	0.482	0.516	0.494	0.471	0.474	0.675	0.697	0.66	0.816	0.849	0.721	0.327	0.574	1.07	1.1	1.09	1.2	1.04
EPLC-272H	0.779	1.33	0.759	0.689	0.745	0.977	0.857	0.676	1.16	0.57	–	0.558	0.796	0.145	0.268	0.151	0.21	0.267
H3255	0.564	0.601	0.576	0.585	0.643	0.865	0.979	0.793	0.924	1	1.1	0.883	0.787	0.846	0.986	0.884	0.816	0.909
HARA	0.761	0.937	1.06	0.902	1.05	1.02	0.995	1.21	1.1	0.802	0.78	0.652	1.01	0.17	0.277	0.48	0.362	0.207
HCC-15	0.632	0.74	0.739	0.702	0.724	0.749	0.63	0.66	0.714	0.906	0.485	0.614	0.686	1.34	1.18	1.06	1.36	1.33
HCC-44	0.944	0.926	1.07	1.09	0.95	0.732	0.696	0.513	0.597	–	–	–	–	0.93	1.05	1.13	1.08	1.02
HCC-78	0.938	0.789	0.655	–	0.834	0.31	0.212	0.216	0.307	0.505	0.323	0.347	0.421	0.657	0.547	0.907	–	0.795
HCC-366	0.278	0.375	0.403	0.352	0.397	0.612	0.442	0.388	0.0918	0.957	0.922	0.9	1.07	0.278	0.214	0.46	0.248	0.207
HCC-827	0.616	0.746	0.652	0.713	0.548	0.897	0.899	0.901	0.9	1.03	1.14	1.06	1.2	0.216	0.29	0.196	0.213	0.175
HOP-62	0.47	0.38	0.389	0.564	0.616	0.896	0.96	0.888	0.981	1.14	1.11	1.02	1.16	0.456	0.836	0.613	0.761	0.595

Cell Line	relative viability (Motesanib + Olaparib; first compound 0.01 µM)	relative viability (Motesanib + Olaparib; first compound 0.03162 µM)	relative viability (Motesanib + Olaparib; first compound 0.1 µM)	relative viability (Motesanib + Olaparib; first compound 0.3162 µM)	relative viability (Motesanib + Olaparib; first compound 1 µM)	relative viability ([1]; first compound 0.04 µM)	relative viability ([1]; first compound 0.1265 µM)	relative viability ([1]; first compound 0.4 µM)	relative viability ([1]; first compound 1.265 µM)	relative viability ([2]; first compound 0.04 µM)	relative viability ([2]; first compound 0.1265 µM)	relative viability ([2]; first compound 0.4 µM)	relative viability ([2]; first compound 1.265 µM)	relative viability (Motesanib + AZD7762; first compound 0.01 µM)	relative viability (Motesanib + AZD7762; first compound 0.03162 µM)	relative viability (Motesanib + AZD7762; first compound 0.1 µM)	relative viability (Motesanib + AZD7762; first compound 0.3162 µM)	relative viability (Motesanib + AZD7762; first compound 1 µM)
IA-LM	0.757	0.834	0.722	0.855	0.822	0.68	0.983	0.646	0.456	1.3	1.11	0.921	1.13	–	–	–	–	–
LC-2-ad	0.689	0.709	0.816	0.733	0.785	0.448	0.387	0.349	0.304	0.651	0.617	0.599	0.5	0.858	0.876	0.868	0.837	0.842
LCLC-97TM1	0.373	0.414	0.501	0.476	0.287	0.184	0.186	0.12	0.187	0.31	0.292	0.278	0.499	–	0.328	0.241	0.238	0.256
NCI-H520	0.319	0.32	0.294	0.297	0.392	0.802	0.499	0.618	0.636	1.01	0.612	0.796	0.768	–	–	–	–	–
NCI-H522	0.691	0.674	0.594	0.677	0.876	–	–	–	–	–	–	–	–	0.815	0.721	0.864	1	1
NCI-H661	0.748	0.76	0.784	0.749	0.774	0.983	–	1.01	–	1.04	1.03	1.06	0.936	–	–	–	–	–
NCI-H1299	0.938	0.973	1.03	1.02	0.898	0.963	0.956	0.97	0.96	1.21	1.06	0.585	1.05	–	–	–	–	–
NCI-H1395	0.442	0.496	0.455	0.493	0.468	–	–	–	–	1.05	0.84	0.932	0.921	0.387	0.372	0.39	0.405	0.399
NCI-H1563	–	–	–	–	–	0.829	0.91	0.947	0.828	1	0.975	0.784	0.83	–	–	–	–	–
NCI-H1623	–	–	–	–	–	–	–	–	–	0.658	0.82	0.57	0.672	–	–	–	–	–
NCI-H1648	0.563	–	–	1.1	1.06	–	–	–	–	–	–	–	–	0.496	–	–	0.702	0.597
NCI-H1650	0.746	0.875	0.914	0.632	0.843	0.966	0.813	0.9	0.366	1.53	1.16	0.984	1.08	–	–	–	–	–
NCI-H1792	0.544	0.444	0.491	0.444	0.486	0.896	0.677	0.62	0.473	–	–	–	–	0.621	0.706	0.92	0.635	0.71
NCI-H1793	0.798	0.827	0.761	0.904	0.844	–	–	–	–	0.664	0.566	–	0.715	0.41	0.243	0.605	0.514	0.413
NCI-H2009	0.717	0.667	0.693	0.646	0.682	1.06	1.01	0.966	0.541	1.23	1.25	1.1	1.14	–	–	–	–	–
NCI-H2023	0.469	0.409	0.515	0.496	0.425	0.467	0.424	0.318	0.119	0.488	0.475	0.36	0.279	–	–	–	–	–
NCI-H2228	0.794	0.74	0.668	0.838	0.749	0.395	0.342	0.262	0.255	0.719	0.686	0.491	0.537	–	–	–	–	–
NCI-H2342	0.472	0.569	0.403	0.469	0.463	–	–	–	–	1.02	0.906	0.812	0.917	0.46	0.515	0.571	0.476	0.459
SK-LU-1	0.445	0.504	0.425	0.505	0.373	0.824	0.875	0.715	0.467	0.782	0.546	0.602	0.575	–	–	–	–	–
SK-MES-1	0.736	0.725	0.736	0.677	0.575	1.09	0.84	0.861	0.879	0.9	0.853	0.542	0.948	–	–	–	–	–
SW 900	0.904	0.677	0.811	0.9	0.917	–	–	–	–	0.705	0.694	0.558	0.816	0.787	0.786	0.552	0.523	0.726
SW 1573	0.504	0.485	0.42	0.588	0.504	0.665	0.63	0.509	0.531	0.744	0.826	0.494	0.659	–	–	–	–	–
